# Assay results taken from the supplement of paper PMC10307832.
# Legend:
# Test in all cases: relative viability (nuclei count vs DMSO), 5 days (fraction); higher = more cells survive
# NCI-H2342 = system: NCI-H2342
# Method in brief: (§1)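 After 5 days of treatment, lung cancer cells in 1536-well plates were fixed and stained in a single step (final 0.05% Triton X-100, 1% formaldehyde, 1 ug/ml Hoechst) and their nuclei counted on 4× images. Treatment had been applied by pin tool the day after seeding as one drug alone or as a fixed anchor-drug dose with five library-drug doses (not always all listed) in √10 steps. Relative viability is the nuclei count of treated wells divided by that of vehicle wells, and values are medians of duplicate plates.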
# NCI-H1915 = system: NCI-H1915
# Method in brief: as §1
# UMC-11 = system: UMC-11
# Method in brief: as §1
# NCI-H1792 = system: NCI-H1792
# Method in brief: as §1
# SK-LU-1 = system: SK-LU-1
# Method in brief: as §1
# 201T = system: 201T
# Method in brief: as §1
# NCI-H2023 = system: NCI-H2023
# Method in brief: as §1
# H3255 = system: H3255
# Method in brief: as §1
# NCI-H441 = system: NCI-H441
# Method in brief: as §1
# NCI-H647 = system: NCI-H647
# Method in brief: as §1
# NCI-H1734 = system: NCI-H1734
# Method in brief: as §1
# RERF-LC-KJ = system: RERF-LC-KJ
# Method in brief: as §1
# NCI-H1793 = system: NCI-H1793
# Method in brief: as §1
# EPLC-272H = system: EPLC-272H
# Method in brief: as §1
# NCI-H2405 = system: NCI-H2405
# Method in brief: as §1
# NCI-H1944 = system: NCI-H1944
# Method in brief: as §1
# LCLC-103H = system: LCLC-103H
# Method in brief: as §1
# NCI-H1666 = system: NCI-H1666
# Method in brief: as §1
# NCI-H1355 = system: NCI-H1355
# Method in brief: as §1
# LOU-NH91 = system: LOU-NH91
# Method in brief: as §1
# NCI-H1651 = system: NCI-H1651
# Method in brief: as §1
# NCI-H1975 = system: NCI-H1975
# Method in brief: as §1
compound,measurement,setting,value
COCC1(CO)C(=O)C2CCN1CC2 (stereo not given) [PRIMA-1MET] + O=C(c1cc(Cc2n[nH]c(=O)c3ccccc23)ccc1F)N1CCN(C(=O)C2CC2)CC1 [Olaparib] (partner 8 µM),relative viability,NCI-H2342; first compound 0.2 µM,0.414
same,relative viability,NCI-H2342; first compound 0.6325 µM,0.432
same,relative viability,NCI-H2342; first compound 6.325 µM,0.395
same,relative viability,NCI-H2342; first compound 20 µM,0.337
same,relative viability,NCI-H1915; first compound 0.2 µM,0.249
same,relative viability,NCI-H1915; first compound 0.6325 µM,0.235
same,relative viability,NCI-H1915; first compound 2 µM,0.239
same,relative viability,NCI-H1915; first compound 6.325 µM,0.256
same,relative viability,NCI-H1915; first compound 20 µM,0.254
same,relative viability,UMC-11; first compound 0.2 µM,0.526
same,relative viability,UMC-11; first compound 0.6325 µM,0.312
same,relative viability,UMC-11; first compound 2 µM,0.376
same,relative viability,UMC-11; first compound 6.325 µM,0.417
same,relative viability,UMC-11; first compound 20 µM,0.406
same,relative viability,NCI-H1792; first compound 0.2 µM,0.899
same,relative viability,NCI-H1792; first compound 6.325 µM,0.444
same,relative viability,NCI-H1792; first compound 20 µM,0.457
same,relative viability,SK-LU-1; first compound 0.2 µM,0.504
same,relative viability,SK-LU-1; first compound 0.6325 µM,0.494
same,relative viability,SK-LU-1; first compound 2 µM,0.365
same,relative viability,SK-LU-1; first compound 6.325 µM,0.455
same,relative viability,SK-LU-1; first compound 20 µM,0.237
same,relative viability,201T; first compound 0.2 µM,0.947
same,relative viability,201T; first compound 0.6325 µM,0.829
same,relative viability,201T; first compound 2 µM,0.808
same,relative viability,201T; first compound 6.325 µM,0.908
same,relative viability,201T; first compound 20 µM,0.839
same,relative viability,NCI-H2023; first compound 0.2 µM,0.576
same,relative viability,NCI-H2023; first compound 0.6325 µM,0.478
same,relative viability,NCI-H2023; first compound 2 µM,0.489
same,relative viability,NCI-H2023; first compound 6.325 µM,0.442
same,relative viability,NCI-H2023; first compound 20 µM,0.29
same,relative viability,H3255; first compound 0.2 µM,0.627
same,relative viability,H3255; first compound 0.6325 µM,0.502
same,relative viability,H3255; first compound 2 µM,0.576
same,relative viability,H3255; first compound 6.325 µM,0.606
same,relative viability,H3255; first compound 20 µM,0.533
same,relative viability,NCI-H441; first compound 0.2 µM,0.559
same,relative viability,NCI-H441; first compound 0.6325 µM,0.674
same,relative viability,NCI-H441; first compound 2 µM,0.615
same,relative viability,NCI-H441; first compound 6.325 µM,0.505
same,relative viability,NCI-H441; first compound 20 µM,0.407
same,relative viability,NCI-H647; first compound 0.2 µM,0.461
same,relative viability,NCI-H647; first compound 0.6325 µM,0.614
same,relative viability,NCI-H647; first compound 2 µM,0.722
same,relative viability,NCI-H647; first compound 6.325 µM,0.607
same,relative viability,NCI-H647; first compound 20 µM,0.593
same,relative viability,NCI-H1734; first compound 0.2 µM,0.711
same,relative viability,NCI-H1734; first compound 0.6325 µM,0.627
same,relative viability,NCI-H1734; first compound 2 µM,0.581
same,relative viability,NCI-H1734; first compound 6.325 µM,0.631
same,relative viability,NCI-H1734; first compound 20 µM,0.0357
same,relative viability,RERF-LC-KJ; first compound 0.2 µM,0.969
same,relative viability,RERF-LC-KJ; first compound 0.6325 µM,0.988
same,relative viability,RERF-LC-KJ; first compound 2 µM,0.977
same,relative viability,RERF-LC-KJ; first compound 6.325 µM,1.09
same,relative viability,RERF-LC-KJ; first compound 20 µM,0.922
same,relative viability,NCI-H1793; first compound 0.2 µM,1.04
same,relative viability,NCI-H1793; first compound 0.6325 µM,0.887
same,relative viability,NCI-H1793; first compound 6.325 µM,0.843
same,relative viability,NCI-H1793; first compound 20 µM,0.539
same,relative viability,EPLC-272H; first compound 0.2 µM,0.655
same,relative viability,EPLC-272H; first compound 0.6325 µM,0.89
same,relative viability,EPLC-272H; first compound 2 µM,0.911
same,relative viability,EPLC-272H; first compound 6.325 µM,0.694
same,relative viability,EPLC-272H; first compound 20 µM,0.0737
same,relative viability,NCI-H2405; first compound 0.2 µM,0.947
same,relative viability,NCI-H2405; first compound 0.6325 µM,0.986
same,relative viability,NCI-H2405; first compound 6.325 µM,0.88
same,relative viability,NCI-H2405; first compound 20 µM,0.167
same,relative viability,NCI-H1944; first compound 0.2 µM,0.479
same,relative viability,NCI-H1944; first compound 0.6325 µM,0.393
same,relative viability,NCI-H1944; first compound 2 µM,0.415
same,relative viability,NCI-H1944; first compound 6.325 µM,0.398
same,relative viability,NCI-H1944; first compound 20 µM,0.457
same,relative viability,LCLC-103H; first compound 0.2 µM,0.841
same,relative viability,LCLC-103H; first compound 0.6325 µM,0.717
same,relative viability,LCLC-103H; first compound 2 µM,0.711
same,relative viability,LCLC-103H; first compound 6.325 µM,0.8
same,relative viability,LCLC-103H; first compound 20 µM,0.703
same,relative viability,NCI-H1666; first compound 0.2 µM,0.773
same,relative viability,NCI-H1666; first compound 0.6325 µM,0.753
same,relative viability,NCI-H1666; first compound 2 µM,0.801
same,relative viability,NCI-H1666; first compound 6.325 µM,0.735
same,relative viability,NCI-H1666; first compound 20 µM,0.739
same,relative viability,NCI-H1355; first compound 0.2 µM,0.768
same,relative viability,NCI-H1355; first compound 0.6325 µM,0.745
same,relative viability,NCI-H1355; first compound 2 µM,0.713
same,relative viability,NCI-H1355; first compound 6.325 µM,0.818
same,relative viability,NCI-H1355; first compound 20 µM,0.707
same,relative viability,LOU-NH91; first compound 0.2 µM,1.02
same,relative viability,LOU-NH91; first compound 0.6325 µM,0.911
same,relative viability,LOU-NH91; first compound 2 µM,0.866
same,relative viability,LOU-NH91; first compound 6.325 µM,0.978
same,relative viability,LOU-NH91; first compound 20 µM,0.65
same,relative viability,NCI-H1651; first compound 0.2 µM,0.226
same,relative viability,NCI-H1651; first compound 0.6325 µM,0.158
same,relative viability,NCI-H1651; first compound 2 µM,0.179
same,relative viability,NCI-H1651; first compound 6.325 µM,0.202
same,relative viability,NCI-H1651; first compound 20 µM,0.184
same,relative viability,NCI-H1975; first compound 0.2 µM,1.01
same,relative viability,NCI-H1975; first compound 0.6325 µM,0.699
same,relative viability,NCI-H1975; first compound 2 µM,0.775
same,relative viability,NCI-H1975; first compound 6.325 µM,0.847
same,relative viability,NCI-H1975; first compound 20 µM,0.616
